# Assay results: PubChem BioAssay AID1845198 (Molecular Pharmacology Branch, DTP, NCI, 2023)
# “And” between values parts separate entries of the source, which are not always exact repeats. Identical values can stand only once.
# System: 425362-245-T-J1 tumor spheroids, viability % test/control
# Assay: Anticancer human tumor 425362-245-T-J1 patient-derived melanoma cell line growth inhibition
# Details: spheroids with HUVEC and MSC; for viability, T/C: stronger effect = lower value
# Text: Multicellular complex tumor spheroid response to DNA repair inhibitors in combination with DNA-damaging drugs
# This study explores the anticancer activities of DNA-damaging drugs and inhibitors of DNA damage repair, both as single agents and in combinations. Complex tumor spheroids comprised of malignant cells, endothelial cells and mesenchymal stem cells served as an in vitro model for human solid tumors. This model system incorporates physiologically relevant features and patient-derived or established malignant cell lines with clinically relevant genetic alterations from many tumor types. Twenty-six patient-derived or established malignant cell lines were evaluated representing sarcoma, melanoma, small cell lung cancer (SCLC), non-small cell lung cancer (NSCLC), as well as bladder, ovarian and pancreatic cancers. The concentration ranges selected for each drug and investigational agent were based upon clinically achievable concentrations if the clinical Cmax of the agent was known.
# Compounds. The drugs and compounds olaparib (NSC753686), talazoparib (NSC767125), berzosertib (NSC777718), elimusertib (NSC800525), nedisertib (NSC802822), VX-984 (NSC792969), AZD-1390 (NSC803789), temozolomide (NSC362856), topotecan (NSC609699), trabectedin (NSC813783), staurosporine (NSC755774), and gemcitabine (NSC613327) were obtained from the National Cancer Institute (NCI) Developmental Therapeutics Program Chemical Repository. The FDA-approved anticancer drug set is available from the Developmental Therapeutics Program at https://dtp.cancer.gov/organization/dscb/obtaining/available_plates.htm. […] The stock solutions were prepared in dimethyl sulfoxide (DMSO, Sigma-Aldrich, St. Louis, MO, cat. D2650) at 400-fold the tested concentration and stored at -70 degrees C. Prior to their use, the stock solutions were diluted in fresh medium and the final DMSO concentration in the assay was 0.25% (v/v). All drugs and investigational agents were tested over a range starting from a high concentration at or near the clinical Cmax and decreasing in half-log increments. If the clinical Cmax for an agent had not been determined, the highest concentration tested was 10 microM.
# Cell Lines. The patient-derived cancer cell (PDC) lines: 156681-154-R-J1-PDC, 283228-195-R-J1-PDC, 287954-098-R-J1-PDC, 292921-168-R-J2-PDC, 349418-098-R-PDC, 425362-245-T-J1-PDC, 556581-035-R-J1-PDC, and BL0293-F563-PDC were received from the NCI Patient-Derived Models Repository (PDMR, https://pdmr.cancer.gov). The established cell lines HS-SY-2 (RRID:CVCL_8719), MPNST, and SYO-1 (RRID:CVCL_7146) were obtained from the Sloan Kettering Institute. The alveolar soft parts sarcoma cell line ASPS-1 (RRID:CVCL_S738) was established at the NCI and grown from internal seed stocks. The following established cell lines were purchased from the American Type Culture Collection (ATCC, Manassas, VA): G-401 (ATCC, cat. CRL-1441, RRID:CVCL_0270), SW982 (ATCC, cat. HTB-93, RRID:CVCL_1734), VA-ES-BJ (ATCC, cat. CRL-2138, RRID:CVCL_1785), NCI-H719 (ATCC, cat. CRL-5837, RRID:CVCL_1582), NCI-H196 (ATCC, cat. CRL-5823, RRID:CVCL_1509), NCI-H841 (ATCC, cat. CRL-5845, RRID:CVCL_1595), NCI-H1618 (ATCC, cat. CRL-5879, RRID:CVCL_1480), NCI-H1876 (ATCC, cat. CRL-5902, RRID:CVCL_1503), DMS 114 (ATCC, cat. CRL-2066; RRID:CVCL_1174), NCI-H211 (ATCC, cat. CRL-5824; RRID:CVCL_1529), and SW 1271 (ATCC, cat. CRL-2177, RRID:CVCL_1716). The small cell lung cancer cell line COR-L88 was purchased from Sigma-Aldrich (cat. 92031917-1VL, RRID:CVCL_1141). The non-small cell lung cancer cell lines NCI-H226 (RRID:CVCL_1544) and NCI-H322M (RRID:CVCL_1557) were established at the NCI and grown from internal seed stocks. Pooled donor human umbilical vein endothelial cells (HUVEC, Lonza, cat. CC-2519) and human mesenchymal stem cells (hMSC, Lonza, cat. PT-2501) were purchased from Lonza (Walkersville, MD).
# Cell Culture. All cells were maintained in an incubator at 37 degrees C and 5% CO2 with 95% humidity. […]
# [1] = compound alone, run of 10/25/2019
# 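Also: spheroids exposed to agents for 7 days.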
# 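For viability, T/C in this document: 100% = DMSO vehicle control viability.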
SMILES,"viability, T/C (compound 0.0316 µM)","viability, T/C (compound 0.1 µM)","viability, T/C (compound 0.316 µM)","viability, T/C (compound 1 µM)","viability, T/C (compound 3.16 µM)","viability, T/C (compound 10 µM)",IC50 (curve of compound),"viability, T/C (compound 0.00949 µM)","viability, T/C (compound 0.03 µM)","viability, T/C (compound 0.0949 µM)","viability, T/C (compound 0.3 µM)",IC50 [1],also measured
CC(C)n1c(=O)n(C)c2cnc3cc(F)c(-c4ccc(OCCCN5CCCCC5)nc4)cc3c21,56.5% and 67.4% and 67.2%,43.4% and 60.3% and 69.2%,44.1% and 39.9% and 36.1%,27.5% and 20.1% and 23.2%,17.4% and 14.7% and 14.3%,7.66% and 5.49% and 5.26%,72.1 nM and 175 nM and 198 nM,–,–,–,–,–,–
CC1COCCN1c1cc(-c2ccnn2C)c2ccnc(-c3ccn[nH]3)c2n1 (stereo not given),34.4% and 43.6% and 45.5%,13.7% and 12.7% and 17.3%,7.51% and 9.92% and 13.6%,6.44% and 8.46% and 7.34%,6.81% and 10.8% and 7.05%,8.79% and 9.71% and 7.27%,< 31.6 nM,–,–,–,–,–,–
CC[C@@]1(O)C(=O)OCc2c1cc1n(c2=O)Cc2cc3c(CN(C)C)c(O)ccc3nc2-1,–,–,–,–,–,–,–,89.3% [middle of 10 runs],38.3% [middle of 10 runs],6.41% [middle of 10 runs],1.78% [middle of 10 runs],23.4 nM [middle of 4 runs],"IC50 (compound alone, run of 10/17/2019): 21.5 nM [middle of 5 runs]"
CNCc1ccc(-c2cc(-c3nc(-c4ccc(S(=O)(=O)C(C)C)cc4)cnc3N)on2)cc1,–,–,–,–,–,–,84 nM and 79.5 nM and 151 nM,93.8% and 103% and 111%,103% and 83.1% and 105%,44.3% and 46.4% and 79.6%,8.53% and 6.26% and 5.89%,–,"viability, T/C (compound 0.949 µM): 3.67% and 5.06% and 2.41%; viability, T/C (compound 3 µM): 0.18% and 0.4% and 0.23%"
COc1cc(C)[nH]c(=O)c1CN1CCc2c(Cl)cc(C(OC)C3COC3)c(Cl)c2C1=O (stereo not given),107% and 103% and 97%,103% (2×) and 108%,106% and 97.8% and 99.9%,95.9% and 103% and 98.4%,97.4% and 104% and 96.1%,89.9% and 92.6% and 88.8%,> 10000 nM,–,–,–,–,–,–
COc1cc2c(cc1O)CCNC21CSC2c3c(OC(C)=O)c(C)c4c(c3C(COC1=O)N1C(O)C3Cc5cc(C)c(OC)c(O)c5C(C21)N3C)OCO4 (stereo not given),–,–,–,–,–,–,–,–,–,–,–,0.243 nM [middle of 9 runs],"viability, T/C (compound 30 pM): 98% [middle of 10 runs]; viability, T/C (compound 94.9 pM): 95.6% [middle of 10 runs]; viability, T/C (compound 0.0003 µM): 40.8% [middle of 10 runs]; viability, T/C (compound 0.000949 µM): 0.32% [middle of 9 runs]; viability, T/C (compound 0.003 µM): 0.21% [middle of 9 runs]"
